Results from ChEMBL document CHEMBL3632463, “Discovery and structure-activity analysis of 4-((5-nitropyrimidin-4-yl)amino)benzimidamide derivatives as novel protein arginine methyltransferase 1 (PRMT1) inhibitors” (Bioorg Med Chem Lett, 2015).
Active and inactive are the calls of the source. The rule behind the calls is not given here.

Columns and labels:
[1] = biological target: T1, Protein arginine N-methyltransferase 1 (Homo sapiens, UniProt Q99873); assay: Inhibition of PRMT1 (unknown origin) using biotinylated histone H4-derived peptide as substrate after 60 mins by AlphaLISA assay
Target sequence in this assay (Q99873 whole entry): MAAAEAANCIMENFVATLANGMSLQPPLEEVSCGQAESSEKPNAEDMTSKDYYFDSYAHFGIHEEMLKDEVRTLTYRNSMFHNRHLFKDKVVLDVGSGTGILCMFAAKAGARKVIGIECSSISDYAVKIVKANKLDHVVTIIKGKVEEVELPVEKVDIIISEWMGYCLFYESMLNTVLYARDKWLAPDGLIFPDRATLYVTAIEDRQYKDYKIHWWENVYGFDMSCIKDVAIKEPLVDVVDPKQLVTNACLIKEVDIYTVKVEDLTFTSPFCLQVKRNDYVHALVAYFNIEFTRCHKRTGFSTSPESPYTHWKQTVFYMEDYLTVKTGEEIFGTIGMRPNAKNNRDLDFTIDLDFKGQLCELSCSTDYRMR

[2] = biological target: T1, Protein arginine N-methyltransferase 1; assay: Inhibition of PRMT1 (unknown origin) using biotinylated histone H4-derived peptide as substrate at 50 uM after 60 mins by AlphaLISA assay
Target sequence in this assay (Q99873 whole entry, looked up): as the sequence (Q99873 whole entry) above

[3] = Cytotoxicity against human DLD1 cells by MTT assay; assay type: functional, cell-based; conditions: DLD-1
[4] = Cytotoxicity against human T24 cells by MTT assay; assay type: functional, cell-based; conditions: T-24
SH-SY5Y = assay: Cytotoxicity against human SH-SY5Y cells by MTT assay; assay type: functional, cell-based
A-375 = assay: Cytotoxicity against human A375 cells by MTT assay; assay type: functional, cell-based
MCF7 = assay: Cytotoxicity against human MCF7 cells by MTT assay; assay type: functional, cell-based
[5] = Cytotoxicity against human UM-UC-3 cells by MTT assay; assay type: functional, cell-based; conditions: UMUC3
[6] = biological target: T2, Histone-arginine methyltransferase CARM1 (Homo sapiens, UniProt Q86X55); assay: Inhibition of PRMT4 (unknown origin) using biotinylated histone H4-derived peptide as substrate after 60 mins by AlphaLISA assay
T2 sequence (Q86X55 whole entry): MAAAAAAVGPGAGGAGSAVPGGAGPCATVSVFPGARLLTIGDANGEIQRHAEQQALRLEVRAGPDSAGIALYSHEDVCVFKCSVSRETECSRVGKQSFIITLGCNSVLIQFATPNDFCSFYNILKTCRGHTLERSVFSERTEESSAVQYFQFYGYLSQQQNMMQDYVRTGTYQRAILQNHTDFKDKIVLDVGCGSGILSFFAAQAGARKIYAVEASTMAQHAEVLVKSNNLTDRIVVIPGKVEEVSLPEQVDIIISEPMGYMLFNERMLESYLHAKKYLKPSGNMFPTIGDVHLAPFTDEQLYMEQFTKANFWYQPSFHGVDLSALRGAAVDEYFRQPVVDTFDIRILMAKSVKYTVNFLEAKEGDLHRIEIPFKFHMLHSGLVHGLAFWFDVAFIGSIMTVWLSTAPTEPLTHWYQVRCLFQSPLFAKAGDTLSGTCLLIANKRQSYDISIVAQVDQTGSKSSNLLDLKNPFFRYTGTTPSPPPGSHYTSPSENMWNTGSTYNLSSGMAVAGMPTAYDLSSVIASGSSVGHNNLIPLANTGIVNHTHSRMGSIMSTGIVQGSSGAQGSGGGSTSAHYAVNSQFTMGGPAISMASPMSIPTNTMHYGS

[7] = biological target: Protein arginine N-methyltransferase 5 (Homo sapiens, UniProt O14744); assay: Inhibition of PRMT5 (unknown origin) using biotinylated histone H4-derived peptide as substrate after 60 mins by AlphaLISA assay
[8] = biological target: Protein arginine N-methyltransferase 6 (Homo sapiens, UniProt Q96LA8); assay: Inhibition of PRMT6 (unknown origin) using biotinylated histone H4-derived peptide as substrate after 60 mins by AlphaLISA assay
[9] = biological target: T1, Protein arginine N-methyltransferase 1; assay: Inhibition of PRMT1 in human DLD1 cells assessed as reduction of asymmetric dimethylation of histone H4R3 level at 3 uM by Western blotting; assay type: cell-based; conditions: DLD-1
Target sequence in this assay (Q99873 whole entry, looked up): as the sequence (Q99873 whole entry) above

[10] = biological target: T1, Protein arginine N-methyltransferase 1; assay: Inhibition of PRMT1 in human DLD1 cells assessed as effect on symmetric dimethylation of histone H3R8 level at 1 to 30 uM by Western blotting; assay type: cell-based; conditions: DLD-1
Target sequence in this assay (Q99873 whole entry, looked up): as the sequence (Q99873 whole entry) above

[11] = biological target: T1, Protein arginine N-methyltransferase 1; assay: Non-competitive inhibition of PRMT1 (unknown origin) using biotinylated histone H4-derived peptide as substrate by Michaelis-Menten kinetic equation analysis
Target sequence in this assay (Q99873 whole entry): as the sequence (Q99873 whole entry) above

Protein arginine N-methyltransferase 6, sequence (Q96LA8 whole entry): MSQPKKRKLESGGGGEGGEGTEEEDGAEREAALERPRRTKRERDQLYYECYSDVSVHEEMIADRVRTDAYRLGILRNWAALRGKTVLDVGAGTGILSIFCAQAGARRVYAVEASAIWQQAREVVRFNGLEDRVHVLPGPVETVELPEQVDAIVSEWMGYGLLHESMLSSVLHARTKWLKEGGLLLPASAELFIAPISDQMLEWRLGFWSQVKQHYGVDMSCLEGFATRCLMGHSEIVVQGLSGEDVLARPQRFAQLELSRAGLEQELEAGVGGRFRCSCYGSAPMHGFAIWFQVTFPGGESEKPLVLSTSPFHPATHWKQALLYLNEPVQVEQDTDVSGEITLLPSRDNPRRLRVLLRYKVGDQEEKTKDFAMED
Protein arginine N-methyltransferase 5, sequence (O14744 whole entry): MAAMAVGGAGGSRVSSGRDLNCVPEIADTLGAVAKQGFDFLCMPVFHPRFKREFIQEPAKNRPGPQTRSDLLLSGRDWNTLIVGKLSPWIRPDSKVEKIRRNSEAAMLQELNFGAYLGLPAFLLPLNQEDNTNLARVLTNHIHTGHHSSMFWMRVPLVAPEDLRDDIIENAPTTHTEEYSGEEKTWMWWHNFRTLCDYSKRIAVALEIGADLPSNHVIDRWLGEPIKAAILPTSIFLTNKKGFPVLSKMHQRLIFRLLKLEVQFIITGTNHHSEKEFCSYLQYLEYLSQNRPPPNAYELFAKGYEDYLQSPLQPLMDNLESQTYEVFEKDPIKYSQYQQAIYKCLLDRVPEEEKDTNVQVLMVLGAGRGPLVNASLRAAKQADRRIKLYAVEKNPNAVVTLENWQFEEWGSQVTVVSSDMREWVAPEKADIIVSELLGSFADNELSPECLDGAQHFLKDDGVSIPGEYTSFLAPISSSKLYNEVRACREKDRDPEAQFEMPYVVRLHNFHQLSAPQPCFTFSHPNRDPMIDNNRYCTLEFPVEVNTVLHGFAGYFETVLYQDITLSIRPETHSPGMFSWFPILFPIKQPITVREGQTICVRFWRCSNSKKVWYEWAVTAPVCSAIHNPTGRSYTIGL

Structure (SMILES) | inhibition [2] | IC50 [3] | IC50 [4] | IC50 (SH-SY5Y) | IC50 (A-375) | IC50 (MCF7) | IC50 [5] | other results
N=C(N)c1ccc(Nc2ncnc(Nc3ccc(C(N)=O)cc3)c2[N+](=O)[O-])cc1 |  |  |  |  |  |  |  | IC50 [1]: 9.3 µM
N=C(N)c1ccc(Nc2ncnc(Nc3ccc(N)cc3)c2[N+](=O)[O-])cc1 | 28% |  |  |  |  |  |  | 
O=C(Nc1ccc2c(O)cc(S(=O)(=O)O)cc2c1)Nc1ccc2c(O)cc(S(=O)(=O)O)cc2c1 |  | > 100 µM | > 100 µM | > 100 µM | > 100 µM | > 100 µM | > 100 µM | 
N=C(N)c1ccc(Nc2ncnc(Nc3ccccc3)c2[N+](=O)[O-])cc1 | 9% |  |  |  |  |  |  | 
COc1cc(Nc2ncnc(Nc3ccc(C(=N)N)cc3)c2[N+](=O)[O-])cc(OC)c1OC | 44% | 83.8 µM | 18.3 µM | 16.2 µM | 87.6 µM | 58.7 µM | 65.4 µM | 
N=C(N)c1ccc(Nc2ncnc(NCC(N)=O)c2[N+](=O)[O-])cc1 | 49% |  |  |  |  |  |  | 
N#Cc1ccc(Nc2ncnc(Nc3ccc(C(=N)N)cc3)c2[N+](=O)[O-])cc1 |  | 4.4 µM | 13.1 µM | 11.4 µM | > 100 µM | 50.6 µM | 45.4 µM | IC50 [1]: 2 µM; IC50 [6]: 10 µM; IC50 [7]: > 100 µM; IC50 [8]: > 100 µM; inhibition [9]: Active; inhibition [10]: inactive; Ki [11]: 1.7 µM
N=C(N)c1ccc(Nc2ncnc(Nc3ccc(S(N)(=O)=O)cc3)c2[N+](=O)[O-])cc1 | 28% | 8.5 µM | 86.8 µM | 92.4 µM | > 100 µM | > 100 µM | 84.6 µM | 
